According to patent publication US11542273B2, “Amide compound having bet proteolysis-inducing action and medicinal application thereof” (MITSUBISHI TANABE PHARMA CORPORATION, priority 2018, dated 2023):

Experiments:
[1] = tested on: human prostate cancer LNCaP cells; assay: Cytotoxic action on cancer cells (WST-8, 96 hr); format: cell-based; conditions: Homo sapiens, LNCaP, 96 h, read-out: LNCaP cytotoxic activity: IC50
Description: The cytotoxic action of the compound of the present invention against human cancer cells was evaluated in vitro. In this experiment, (+)-JQ1 (Nature volume 468, pages 1067-1073 (23 Dec. 2010)) known to have an inhibitory activity on the binding of BRD4 protein and a ligand therefor was used as a positive control drug. Respective cells were suspended in 10% FBS/RPMI1640, seeded in a 96 well plate and cultured at 5% CO2, 37° C. overnight. A test compound dissolved in DMSO was diluted with 10% FBS/RPMI1640 and added and the cells were further cultured for 96 hr. After culturing, the viable cell number was measured using a cell number measurement WST-8 kit (Kishida Chemical Co., Ltd.). As a control, the measurement was performed under conditions free of the test compound. The cytotoxic activity of the compound of the present invention against human prostate cancer LNCaP cells is shown in IC50 value in Table 1. […] It was calculated from the straight line connecting the cell survival rate at two points enclosing the 50% cell survival rate and the compound concentration. In addition, the cytotoxic activity against respective cancer cells of human acute myeloid leukemia MV-4-11 cell, human chronic myeloid leukemia K562 cell, human multiple myeloma MM.1S cell, human diffuse large B-cell lymphoma SU-DHL-6 cell, human T-cell leukemia Jurkat cells, human Burkitt lymphoma Raji cell, human castration-resistant prostate cancer PC-3 cell, human ovarian cancer A2780 cell, human bladder cancer 5637 cell, human breast cancer ZR-75-1 cell, human triple negative breast cancer MDA-MB-231 cell, human uterine sarcoma MES-SA cell, human gastric cancer SNU-16 cell, human non-small cell lung cancer NCI-H1975 cell, human small cell lung cancer NCI-H82 cell, human large cell lung cancer NCI-H460 cell, human colorectal cancer HCT116 cell, human glioma U-87 MG cell, human pancreatic cancer AsPC-1 cell, and human liver cancer Hep G2 cell is shown in IC50 value in Table 2.

BRD4 protein = BRD4 protein (Homo sapiens (Human), UniProt O60885); assay: BRD4 protein degradation inducing action in cancer cells (immunofluorescence, Operetta); format: cell-based; conditions: LNCaP cells, 6 hr treatment, fluorescence intensity
Description: The degradation inducing action of the compound of the present invention on BRD4 protein in cancer cells was evaluated in vitro using human prostate cancer LNCaP cells. LNCaP cells were suspended in 10% FBS/RPMI1640, seeded in a 96 well Cell carrier plate (Perkin Elmer) and cultured at 5% CO2, 37° C. overnight. A test compound dissolved in DMSO was diluted with 10% FBS/RPMI1640 and added and the cells were further cultured for 6 hr. After culturing, the cells were immobilized with 4% para-formaldehyde/PBS and further subjected to a permeation treatment with 0.25% Triton X-100/PBS. Thereafter, the cells were blocked with 10% BSA/PBS, a solution containing Anti-Brd4 antibody (Abcam) or Anti-BRD4 (Sigma-Aldrich) as the primary antibody was added and the cells were incubated at 4° C. overnight. Thereafter, as the secondary antibody, a solution containing secondary antibody A shown below was added to Example compounds 1-190, 223 and 224, and a solution containing secondary antibody B shown below was added to Example compounds 191-222, and 0.5 μg/mL Hoechst 33342 (Sigma-Aldrich) and 14 μM Acti-Stain 555 Fluorescent Phalloidin (Cytoskeleton) were further added. After incubation for 1 hr, BRD4 protein amount was measured by Operetta (Perkin Elmer) as fluorescence intensity.
• Anti-Rabbit IgG(H+L), F(ab′)2 Fragment (Alexa Fluor 488 Conjugate) (Cell Signaling Technology), fluorescence intensity was measured at excitation: 495 nm, emission: 519 nm. Secondary Antibody B • Goat anti-Rabbit IgG(H+L) Cross-Adserbed Secondary Antibody (Alexa Fluor 546) (Thermo Fisher Scientific) fluorescence intensity was measured at excitation: 560 nm, emission: 572 nm.
The BRD4 protein degradation inducing activity of the compound of the present invention in LNCaP cells is shown in DC50 value in Table 3. The DC50 value is a concentration of the compound showing 50% fluorescence intensity when the fluorescence intensity thereof under compound untreated condition is 100%. It was calculated from the straight line connecting the fluorescence intensity at two points enclosing the 50% fluorescence intensity and the compound concentration.

Row | DC50 (BRD4 protein) | SMILES | IC50 [1]
1 | 0.23 nM | Cc1ncsc1-c1ccc([C@H](C)NC(=O)[C@@H]2C[C@@H](O)CN2C(=O)[C@@H](NC(=O)CCCCCCc2ccc(C3=N[C@@H](C)c4nnc(C)n4-c4sc(C)c(C)c43)cc2)C(C)(C)C)cc1 [Example 194, (2S,4R)-1-{(2S)-3,3-dimethyl-2-[(7-{4-[(6S)-2,3,6,9-tetramethyl-6H-thieno[3,2-f][1,2,4]triazolo[4,3-a] [1,4]diazepin-4-yl]phenyl}heptanoyl)amino]butanoyl}-4-hydroxy-N-{(1S)-1-[4-(4-methyl-1,3-thiazol-5-yl)phenyl]ethyl}pyrrolidine-2-carboxamide] | 0.17 nM
2 | 0.091 nM | COC(=O)C[C@@H]1N=C(c2ccc(-c3ccc(SCC(=O)N[C@H](C(=O)N4C[C@H](O)C[C@H]4C(=O)N[C@@H](C)c4ccc(-c5scnc5C)cc4)C(C)(C)C)cc3)cc2)c2c(sc(C)c2C)-n2c(C)nnc21 [Example 53, methyl [(6S)-4-(4′-{[2-({(2S)-1-[(2S,4R)-4-hydroxy-2-({(1S)-1-[4-(4-methyl-1,3-thiazol-5-yl)phenyl]ethyl}carbamoyl)pyrrolidin-1-yl]-3,3-dimethyl-1-oxobutan-2-yl}amino)-2-oxoethyl]sulfanyl}[1,1′-biphenyl]-4-yl)-2,3,9-trimethyl-6H-thieno[3,2-f][1,2,4]triazolo[4,3-a] [1,4]diazepin-6-yl]acetate] | 0.2 nM
3 | 0.066 nM | COC(=O)C[C@@H]1N=C(c2ccc(-c3ccc4cc(C(=O)N[C@H](C(=O)N5C[C@H](O)C[C@H]5C(=O)N[C@@H](C)c5ccc(-c6scnc6C)cc5)C(C)(C)C)oc4c3)cc2)c2c(sc(C)c2C)-n2c(C)nnc21 [Example 164, methyl [(6S)-4-{4-[2-({(2S)-1-[(2S,4R)-4-hydroxy-2-({(1S)-1-[4-(4-methyl-1,3-thiazol-5-yl)phenyl]ethyl}carbamoyl)pyrrolidin-1-yl]-3,3-dimethyl-1-oxobutan-2-yl}carbamoyl)-1-benzofuran-6-yl]phenyl}-2,3,9-trimethyl-6H-thieno[3,2-f][1,2,4]triazolo[4,3-a][1,4]diazepin-6-yl]acetate] | 0.077 nM
4 | 0.8 nM | COC(=O)C[C@@H]1N=C(c2ccc(-c3ccccc3OCC(=O)N[C@H](C(=O)N3C[C@H](O)C[C@H]3C(=O)N[C@@H](C)c3ccc(-c4scnc4C)cc3)C(C)(C)C)cc2)c2c(sc(C)c2C)-n2c(C)nnc21 [Example 178, methyl [(6S)-4-{2′-[2-({(2S)-1-[(2S,4R)-4-hydroxy-2-({(1S)-1-[4-(4-methyl-1,3-thiazol-5-yl)phenyl]ethyl}carbamoyl)pyrrolidin-1-yl]-3,3-dimethyl-1-oxobutan-2-yl}amino)-2-oxoethoxy][1,1′-biphenyl]-4-yl}-2,3,9-trimethyl-6H-thieno[3,2-f][1,2,4]triazolo[4,3-a][1,4]diazepin-6-yl]acetate] | 0.68 nM
5 | 0.33 nM | COC(=O)C[C@@H]1N=C(c2ccc(-c3ccc(C(=O)N[C@H](C(=O)N4C[C@H](O)C[C@H]4C(=O)N[C@@H](CO)c4ccc(-c5scnc5C)cc4)C(C)(C)C)cc3)cc2)c2c(sc(C)c2C)-n2c(C)nnc21 [Example 215, methyl {(6S)-4-[4′-({(2S)-1-[(2S,4R)-4-hydroxy-2-({(1R)-2-hydroxy-1-[4-(4-methyl-1,3-thiazol-5-yl)phenyl]ethyl}carbamoyl)pyrrolidin-1-yl]-3,3-dimethyl-1-oxobutan-2-yl}carbamoyl)[1,1′-biphenyl]-4-yl]-2,3,9-trimethyl-6H-thieno[3,2-f][1,2,4]triazolo[4,3-a][1,4]diazepin-6-yl}acetate] | 0.31 nM
6 | 0.075 nM | COC(=O)C[C@@H]1N=C(c2ccc(-c3cccc(C(=O)N[C@H](C(=O)N4C[C@H](O)C[C@H]4C(=O)N[C@@H](C)c4ccc(-c5scnc5C)cc4)C(C)(C)C)n3)cc2)c2c(sc(C)c2C)-n2c(C)nnc21 [Example 113, methyl [(6S)-4-{4-[6-({(2S)-1-[(2S,4R)-4-hydroxy-2-({(1S)-1-[4-(4-methyl-1,3-thiazol-5-yl)phenyl]ethyl}carbamoyl)pyrrolidin-1-yl]-3,3-dimethyl-1-oxobutan-2-yl}carbamoyl)pyridin-2-yl]phenyl}-2,3,9-trimethyl-6H-thieno[3,2-f][1,2,4]triazolo[4,3-a][1,4]diazepin-6-yl]acetate] | 0.096 nM
7 | 0.37 nM | COC(=O)C[C@@H]1N=C(c2ccc(-n3ccc(C(=O)N[C@H](C(=O)N4C[C@H](O)C[C@H]4C(=O)N[C@@H](C)c4ccc(-c5scnc5C)cc4)C(C)(C)C)n3)cc2)c2c(sc(C)c2C)-n2c(C)nnc21 [Example 172, methyl [(6S)-4-{4-[3-({(2S)-1-[(2S,4R)-4-hydroxy-2-({(1S)-1-[4-(4-methyl-1,3-thiazol-5-yl)phenyl]ethyl}carbamoyl)pyrrolidin-1-yl]-3,3-dimethyl-1-oxobutan-2-yl}carbamoyl)-1H-pyrazol-1-yl]phenyl}-2,3,9-trimethyl-6H-thieno[3,2-f][1,2,4]triazolo[4,3-a][1,4]diazepin-6-yl]acetate] | 0.36 nM
8 | 0.32 nM | COC(=O)C[C@@H]1N=C(c2ccc(-c3ccc(C(=O)N[C@H](C(=O)N4C[C@H](O)C[C@H]4C(=O)N[C@@H](C)c4ccc(-c5scnc5C)cc4)C(C)(C)C)cc3)cc2)c2c(sc(CO)c2C)-n2c(C)nnc21 [Example 209, methyl {(6S)-2-(hydroxymethyl)-4-[4′-({(2S)-1-[(2S,4R)-4-hydroxy-2-({(1S)-1-[4-(4-methyl-1,3-thiazol-5-yl)phenyl]ethyl}carbamoyl)pyrrolidin-1-yl]-3,3-dimethyl-1-oxobutan-2-yl}carbamoyl)[1,1′-biphenyl]-4-yl]-3,9-dimethyl-6H-thieno[3,2-f][1,2,4]triazolo[4,3-a][1,4]diazepin-6-yl}acetate] | 0.24 nM
9 | 0.013 nM | COC(=O)C[C@@H]1N=C(c2ccc(-c3ccc(COCC(=O)N[C@H](C(=O)N4C[C@H](O)C[C@H]4C(=O)N[C@@H](C)c4ccc(-c5scnc5C)cc4)C(C)(C)C)cc3)cc2)c2c(sc(C)c2C)-n2c(C)nnc21 [Example 39, methyl [(6S)-4-(4′-{[2-({(2S)-1-[(2S,4R)-4-hydroxy-2-({(1S)-1-[4-(4-methyl-1,3-thiazol-5-yl)phenyl]ethyl}carbamoyl)pyrrolidin-1-yl]-3,3-dimethyl-1-oxobutan-2-yl}amino)-2-oxoethoxy]methyl}[1,1′-biphenyl]-4-yl)-2,3,9-trimethyl-6H-thieno[3,2-f][1,2,4]triazolo[4,3-a] [1,4]diazepin-6-yl]acetate] | 0.071 nM
10 | 0.46 nM | COC(=O)C[C@@H]1N=C(c2ccc(-c3ccc4c(c3)N(CC(=O)N[C@H](C(=O)N3C[C@H](O)C[C@H]3C(=O)N[C@@H](C)c3ccc(-c5scnc5C)cc3)C(C)(C)C)C(=O)CC4)cc2)c2c(sc(C)c2C)-n2c(C)nnc21 [Example 146, methyl [(6S)-4-(4-{1-[2-({(2S)-1-[(2S,4R)-4-hydroxy-2-({(1S)-1-[4-(4-methyl-1,3-thiazol-5-yl)phenyl]ethyl}carbamoyl)pyrrolidin-1-yl]-3,3-dimethyl-1-oxobutan-2-yl}amino)-2-oxoethyl]-2-oxo-1,2,3,4-tetrahydroquinolin-7-yl}phenyl)-2,3,9-trimethyl-6H-thieno[3,2-f] [1,2,4]triazolo[4,3-a][1,4]diazepin-6-yl]acetate] | 0.44 nM
